Source: patent US5773449A, “Thioquinolone compounds which have useful pharmaceutical activity” (Zenyaku Kogyo Kabushiki Kaisha, priority 1994, dated 1998)
≈ marks a conversion by molar mass, not a printed value.

Legend:
Type in all cases: cell-based
[1] = test system: E.faecalis RIMD 3336001; experiment: Antibacterial Test 2: agar plate dilution method (aerobic MIC method), E.faecalis; conditions: Enterococcus faecalis, RIMD3336001, sensitive-disk agar medium-N
Experimental: (§1) Then, tested were antibacterial activities of the typical compounds of the present invention against gram-positive and-negative bacteria other than Hp. MICs of the typical compounds of the present invention were determined in substantial accordance with agar plate dilution method (aerobic MIC method) based on Standard method of The Japan Society of Chemotherapy.
(§2) The respective test compound were dissolved in dimethyl sulfoxide (DMSO) and serially diluted twofold. These diluted solutions of the compounds were respectively added to sensitive-disk agar medium-N (manufactured by NISSUI SEIYAKU) to prepare agar plates for determination with concentration of 0.05-100 μg/ml.
(§3) The below-mentioned strains freezingly conserved at -135° C. were thawed in a warm bath (40° C.), cultured in a sensitivity-determining bouillon at 37° C. for 18-20 hours, and then diluted with the above-mentioned medium to prepare about 1.0×10^6CFU/ml of bacterial solution.
(§4) Inoculation was made by 5 μl by multi-inoculator (manufactured by SAKUMA SEISAKUSHO). Culturing was made under the same conditions as those of the pre-culturing and the MIC (unit: μg/ml) was determined by observing whether the bacteria grew or not.

[2] = test system: K.pneumoniae PCI 602; experiment: Antibacterial Test 2: agar plate dilution method (aerobic MIC method), K.pneumoniae; conditions: Klebsiella pneumoniae, PCI602, sensitive-disk agar medium-N
Experimental: as §1, §2, §3, §4

[3] = test system: S.aureus FDA 209P; experiment: Antibacterial Test 2: agar plate dilution method (aerobic MIC method), S.aureus; conditions: Staphylococcus aureus, FDA209P, sensitive-disk agar medium-N
Experimental: as §1, §2, §3, §4

[4] = test system: Helicobacter pylori standard strain ATCC 43526 (NCTC 11916); experiment: Antibacterial test 1: agar plate dilution method (anaerobic MIC method) against Hp; conditions: 72 h; Helicobacter pylori ATCC 43526 (NCTC 11916); brucella agar + 7% horse blood, microaerobic, 37° C., 3 days
Experimental: Antibacterial test against Hp was performed in substantial accordance with agar plate dilution method (anaerobic MIC method) based on Standard method of The Japan Society of Chemotherapy to determine minimum inhibitory concentration (MIC) of the respective test compounds. The respective test compounds were sequentially dissolved in dimethyl sulfoxide (DMSO) and serially diluted twofold. […] Strain used for inoculation was Helicobacter pylori standard strain ATCC 43526 (NCTC 11916). For pre-culturing of bacteria to be inoculated, the above-mentioned strain freezingly conserved at -135° C. was thawed in a warm bath (40° C.), applied on a brucella agar medium containing 7% horse blood free from fibrin, and microaerobically cultured in a jar for anaerobic bacteria at 37° C. for 3 days. The solution of bacteria to be inoculated was prepared by collecting colonies grown on the culture medium and suspending the same in the brucella broth.

[5] = test system: B.subtilis PCI 219; experiment: Antibacterial Test 2: agar plate dilution method (aerobic MIC method), B.subtilis; conditions: Bacillus subtilis, PCI219, sensitive-disk agar medium-N
Experimental: as §1, §2, §3, §4

[6] = test system: M.luteus ATCC 9341; experiment: Antibacterial Test 2: agar plate dilution method (aerobic MIC method), M.luteus; conditions: Micrococcus luteus, ATCC9341, sensitive-disk agar medium-N
Experimental: as §1, §2, §3, §4

[7] = test system: E.coli NIHJ JC-2; experiment: Antibacterial Test 2: agar plate dilution method (aerobic MIC method), E.coli; conditions: Escherichia coli, NIHJJC2, sensitive-disk agar medium-N
Experimental: as §1, §2, §3, §4

[8] = test system: P.aeruginosa IFO 3445; experiment: Antibacterial Test 2: agar plate dilution method (aerobic MIC method), P.aeruginosa; conditions: Pseudomonas aeruginosa, IFO3445, sensitive-disk agar medium-N
Experimental: as §1, §2, §3, §4

Compound	MIC [1]	MIC [2]	MIC [3]	MIC [4]	MIC [5]	MIC [6]	MIC [7]	MIC [8]
CC(=O)OCc1ccc2c(=S)cc[nH]c2c1 [compound 29, 7-Acetoxymethylquinoline-4(1H)-thione]	50 µg/mL (≈ 214 µM)	> 100 µg/mL	25 µg/mL (≈ 107 µM)	0.78 µg/mL	100 µg/mL (≈ 429 µM)	50 µg/mL (≈ 214 µM)	> 100 µg/mL	> 100 µg/mL
CCCCCCCCCCCCc1ccc2c(=S)cc[nH]c2c1 [compound 30, 7-Dodecylquinoline-4(1H)-thione]	> 100 µg/mL	> 100 µg/mL	> 100 µg/mL	1.56 µg/mL	> 100 µg/mL	100 µg/mL (≈ 303 µM)	> 100 µg/mL	> 100 µg/mL
S=c1cc[nH]c2cc(CCc3ccccc3)ccc12 [compound 31, 7-Phenethylquinoline-4(1H)-thione]	> 100 µg/mL	> 100 µg/mL	> 100 µg/mL	0.39 µg/mL	> 100 µg/mL	> 100 µg/mL	> 100 µg/mL	> 100 µg/mL
S=c1cc[nH]c2cc(/C=C/c3ccccc3)ccc12 [compound 32, trans-7-Styrylquinoline-4(1H)-thione]	> 100 µg/mL	> 100 µg/mL	> 100 µg/mL	0.78 µg/mL	> 100 µg/mL	> 100 µg/mL	> 100 µg/mL	> 100 µg/mL
CC(C)N(C)c1ccc2c(=S)cc[nH]c2c1 [compound 34, 7-(N-Isopropyl-N-methylamino)quinoline-4(1H)-thione]	> 100 µg/mL	> 100 µg/mL	> 100 µg/mL	0.78 µg/mL	> 100 µg/mL	> 100 µg/mL	> 100 µg/mL	> 100 µg/mL
S=c1cc[nH]c2cc(N3CCOCC3)ccc12 [compound 36, 7-Morpholinoquinoline-4(1H)-thione]	> 100 µg/mL	> 100 µg/mL	100 µg/mL (≈ 406 µM)	0.39 µg/mL	100 µg/mL (≈ 406 µM)	100 µg/mL (≈ 406 µM)	> 100 µg/mL	> 100 µg/mL
S=c1cc[nH]c2cc(SCc3ccccc3)ccc12 [compound 37, 7-Benzylthioquinoline-4(1H)-thione]	> 100 µg/mL	> 100 µg/mL	> 100 µg/mL	0.78 µg/mL	> 100 µg/mL	> 100 µg/mL	> 100 µg/mL	> 100 µg/mL
S=c1cc[nH]c2cc(Oc3ccccc3)ccc12 [compound 38, 7-Phenoxyquinoline-4(1H)-thione]	> 100 µg/mL	> 100 µg/mL	> 100 µg/mL	0.78 µg/mL	> 100 µg/mL	> 100 µg/mL	> 100 µg/mL	> 100 µg/mL
S=c1cc[nH]c2c1ccc1ccccc12 [compound 39, Benzo[h]quinoline-4(1H)-thione]	> 100 µg/mL	> 100 µg/mL	> 100 µg/mL	0.39 µg/mL	> 100 µg/mL	> 100 µg/mL	> 100 µg/mL	> 100 µg/mL
S=c1cc[nH]c2c3c(ccc12)CCCC3 [compound 40, 7,8,9,10-Tetrahydrobenzo[h]quinoline-4(1H)-thione]	> 100 µg/mL	> 100 µg/mL	> 100 µg/mL	0.2 µg/mL	> 100 µg/mL	> 100 µg/mL	> 100 µg/mL	> 100 µg/mL
Cc1cccc2c(=S)cc[nH]c12 [compound 41, 8-Methylquinoline-4(1H)-thione]	> 100 µg/mL	> 100 µg/mL	> 100 µg/mL	0.78 µg/mL	> 100 µg/mL	> 100 µg/mL	> 100 µg/mL	> 100 µg/mL
S=c1cc[nH]c2cc(Cc3ccccc3)ccc12 [compound 47, 7-Benzylquinoline-4(1H)-thione]	> 100 µg/mL	> 100 µg/mL	> 100 µg/mL	0.2 µg/mL	> 100 µg/mL	50 µg/mL (≈ 199 µM)	> 100 µg/mL	> 100 µg/mL
CN(C)c1ccc2c(=S)cc[nH]c2c1 [compound 48, 7-N,N-Dimethylaminoquinoline-4(1H)-thione]	> 100 µg/mL	> 100 µg/mL	100 µg/mL (≈ 489 µM)	0.2 µg/mL	> 100 µg/mL	> 100 µg/mL	> 100 µg/mL	> 100 µg/mL
CC(C)Sc1ccc2c(=S)cc[nH]c2c1 [compound 49, 7-Isopropylthioquinoline-4(1H)-thione]	> 100 µg/mL	> 100 µg/mL	> 100 µg/mL	0.39 µg/mL	> 100 µg/mL	> 100 µg/mL	> 100 µg/mL	> 100 µg/mL
S=c1cc[nH]c2cc(CSc3nc4ccccc4[nH]3)ccc12 [compound 50, 7-(2-Benzimidazolyl)thiomethylquinoline-4(1H)-thione]	> 100 µg/mL	> 100 µg/mL	> 100 µg/mL	1.56 µg/mL	> 100 µg/mL	> 100 µg/mL	> 100 µg/mL	> 100 µg/mL
O=C(O)CCCCCOc1ccc2c(=S)cc[nH]c2c1 [compound 51, 7-(5-Carboxy-n-pentyloxy)quinoline-4(1H)-thione]	100 µg/mL (≈ 343 µM)	> 100 µg/mL	100 µg/mL (≈ 343 µM)	1.56 µg/mL	> 100 µg/mL	> 100 µg/mL	> 100 µg/mL	> 100 µg/mL
CCCCCCCCOc1ccc2c(=S)cc[nH]c2c1 [compound 53, 7-Octyloxyquinoline-4(1H)-thione]	> 100 µg/mL	> 100 µg/mL	> 100 µg/mL	3.13 µg/mL	> 100 µg/mL	> 100 µg/mL	> 100 µg/mL	> 100 µg/mL
S=c1cc[nH]c2cc(N3CCNCC3)ccc12 [compound 54, 7-(1-Piperazinyl)quinoline-4(1H)-thione]	> 100 µg/mL	> 100 µg/mL	100 µg/mL (≈ 408 µM)	3.13 µg/mL	> 100 µg/mL	> 100 µg/mL	> 100 µg/mL	> 100 µg/mL
Cc1ccc2c(=S)cc[nH]c2c1C [compound 55, 7,8-Dimethylquinoline-4(1H)-thione]	> 100 µg/mL	> 100 µg/mL	> 100 µg/mL	0.39 µg/mL	> 100 µg/mL	> 100 µg/mL	> 100 µg/mL	> 100 µg/mL
